Patent US20260124244A1, “MEGAKARYOCYTE DERIVATIVES FOR TREATMENT OF DRY EYE DISEASES” (Stellular Bio, Inc., priority 2023, published 2026)

Columns and labels:
[1] = system: human corneal epithelial (HCE-T) cells; assay: HCE-T cell proliferation, xCELLigence RTCA cell index; assay type: cell-based; conditions: 72-hour time course; EGF 30.4 pg/ml to 31.2 ng/ml; MLC lysates 0.025-0.75% (v/v) (high speed centrifugation) or 0.22 μm filtered
Procedure: Effect of MLC lysate on proliferation of human corneal epithelial (HCE-T) cells was measured. Briefly, HCE-T cells were plated on to E-Plate 96 (Agilent Technologies, Santa Clara, CA) at 2,500 cells per well in minimal KGM-Gold medium (Lonza, Walkersville, MD). Minimal KGM-Gold medium contains all KGM-Gold BulletKit components except for EGF (positive control), MLC lysates, and/or bovine pituitary extract. For negative control vehicle only, phosphate buffer solution (PBS) was used. After 24 hours, cells were treated with indicated concentrations of MLC lysates, EGF (SinoBiological Inc., Beijing, China) or PBS. The E-plate was then returned to the xCELLigence RTCA instrument for data collection for an additional 48 hours. Area under the curve (AUC) of normalized Cell Index was calculated using RTCA Software Pro and then normalized to vehicle. FIG. 10A illustrates results of a 72-hour time course study of effects of EGF on proliferation of HCE-T cells at a concentration ranging from 30.4 pg/ml to 31.2 ng/ml. FIG. 10B is an alternate representation of FIG. 10A showing normalized area under curved of normalized cell index for each concentration. […] FIG. 11A illustrates results of a 72-hour time course study of effects of MLC Lysates processed with high speed centrifugation on the proliferation of HCE-T cells at a dose ranging from 0.025% (v/v) to 0.75% (v/v). […]

[2] = system: rat medial meniscal tear (MMT) model of osteoarthritis (OA); assay: Joint histology in rat MMT osteoarthritis model; assay type: in vivo; conditions: day 28 after surgery
Procedure: (§1) In vivo effect of MLC lysate and PLC in a subject having osteoarthritis was measured. A rat medial meniscal tear (MMT) model of osteoarthritis (OA) was used in an in vivo study for testing efficacy of megakaryocyte derivatives. […] As described in FIG. 13A, Lewis rats were subjected to meniscal tear surgery on day 0. Dynamic weight bearing and electronic Von Frey Filament analyses were conducted at 7, 14, 21 and 28 days following surgery. Subjects were administered with MLC lysates or PLCs by intraarticular injection after DWB and EVFF analysis on days 7, 14 and 21 following surgery. On day 28 following surgery, serum was collected, and animals were sacrificed to allow for joint histology. PRP and recombinant human FGF-18 were used as positive controls. For negative control vehicle only was used. In sum, the study comprised the following groups: No surgery (n=5), MMT Surgery+Vehicle (n=15), MMT Surgery+Platelet-like cells (n=15), MMT Surgery+Platelet-rich plasma (n=15), MMT Surgery+rFGF-18 (n=15), and MMT Surgery+MLC Lysate (n=15).
As outlined in FIG. 13A, a histological analysis of test subjects was performed 28 days following the surgery. […] Additionally, synovitis score wad medial tibial osteophyte measurement was performed based on analysis of histological data.

[3] = system: rat medial meniscal tear (MMT) model of osteoarthritis (OA); assay: Electronic Von Frey Filament test in rat MMT osteoarthritis model; assay type: in vivo; conditions: intraarticular injection on days 7, 14 and 21 after surgery; compared to vehicle
Procedure: as §1
(§2) FIGS. 13B and 13C illustrate efficacy results of MLC lysate and PLC in the rat medial meniscal tear model of osteoarthritis using dynamic weight bearing test and electronic Von Frey Filament test, respectively.

[4] = system: rat medial meniscal tear (MMT) model of osteoarthritis (OA); assay: Dynamic weight bearing test in rat MMT osteoarthritis model; assay type: in vivo; conditions: intraarticular injection on days 7, 14 and 21 after surgery; tested days 7-28
Procedure: as §1, §2

| Substance | proliferation of HCE-T cells (AUC of normalized Cell Index, normalized to vehicle) [1] | medial tibial osteophyte measurement compared to vehicle [2] | substantial cartilage degeneration width compared to vehicle [2] | synovitis score compared to vehicle [2] | electronic von Frey filament thresholds [3] | pain profile in dynamic weight bearing testing [4] |
| --- | --- | --- | --- | --- | --- | --- |
| EGF: EGF (SinoBiological Inc.) used as positive control for HCE-T proliferation (NSDSECPLSHDGYCLHDGVCMYIEALDKYACNCVVGYIGERCQYRDLKWWELR; Epidermal growth factor; UniProt P01133 971-1023, looked up) | promotes corneal epithelial cell proliferation in a dose-dependent manner | – | – | – | – | – |
| recombinant human FGF-18: recombinant human FGF-18 used as positive control in the rat MMT model | – | resulted in a significant increase | significant reduction compared to vehicle treatment | significant increase in synovitis score | significant decrease in thresholds | progressive increasing signal over time |
